Measurements published in publication PMC10688702, “The indole motif is essential for the antitrypanosomal activity of N^5-substituted paullones” (PLOS ONE, 2023).
Where a name gives a salt, the structure may show the parent alone.

Tests used:
[1] = target: trypanothione synthetase of L. infantum (LiTryS) (Leishmania infantum, UniProt A4I2Z3); experiment: TryS activity screening assay on recombinant LiTryS; assay type: biochemical; conditions: for activity at 30 µM: read-out: LiTryS activity [% at 30 μM]; for LiTryS activity [% at 30 μM]: recombinant TryS, % activity at 30 μM compound, errors 2 SD
Experimental: (§1) TryS from different trypanosomatids was produced in recombinant form with an N-terminal His-tag. The constructs pET-15b TbTryS and pET-28c(+)LiTryS were used to express TryS of T. b. brucei 427 (MITat1.4, GenBank accession protein id CAC87573.1), and L. infantum JPCM5 (GenBank accession protein id CAM69145.1). E. coli strain BL21 (DE3) served as the expression host. For TbTryS, the cells were cultured in a medium based in Terrific Broth and induction with isopropyl 1-thio-β-D-galactopyranoside (IPTG), while for LiTryS, the cells were cultured in ZYM-5052 auto-induction medium. For a detailed description of the expression, see Benítez et al.. The purification was performed by immobilised metal affinity chromatography in a HisTrap Fast Flow column (GE Healthcare) followed by size exclusion chromatography. […] The fractions containing recombinant TryS with ≥95% purity were pooled and concentrated to >10 mg protein/mL using a 10 kDa cut-off Amicon filter (Millipore, Billerica, CA). Glycerol was added at a final concentration of 40% (v/v). The samples were stored at -80°C. Enzyme purity and activity were assessed by SDS-PAGE (12%) under reducing conditions and by the end-point TryS assay (see TryS activity screening assay), respectively. Protein concentration was determined using the bicinchoninic acid assay with bovine serum albumin as standard. The protocols yielded 25–30 mg TbTryS or LiTryS per litre of culture medium and homogeneous specific activity.
(§2) For all TryS, ATP was used at 150 μM because of a high background signal at higher concentrations and Spd fixed at 2 mM, in agreement with the intracellular levels calculated from data reported in the literature for trypanosomatids. GSH was adjusted to 0.05 and 0.25 mM for TbTryS and LiTryS, respectively, to avoid substrate inhibition or to approach physiological concentrations. […] Microtiter plate wells were loaded with 5 μL of the test compound, DMSO (reaction control) or a TryS specific inhibitor (inhibition control) and 40 μL of MM solution. The reactions were then started by adding 5 μL of TryS (2 and 3*10^−5 μmol*min^-1*mL^-1 for LiTryS and TbTryS, respectively) and stopped after 15 min with 200 μL BIOMOL® GREEN reagent (Enzo Life Sciences). The compounds used as inhibition control were added at concentrations that inhibited 50% TryS activity: 30 μM and 150 nM MOL2008 for TbTryS and LiTryS, respectively. Blanks were prepared for each condition by adding 5 μL of screening reaction buffer instead of the enzyme. The TryS activity is calculated as follows: TrySactivity%=A650nmCi-A650nmCiB/A650nmE-A650nmEB*100%
(§3) A650 nm Ci is the mean absorbance at 650 nm for the reaction test with compound I (Ci), A650 nm CiB is the mean absorbance at 650 nm for the blank control with compound I (CiB), A650 nm E is the mean absorbance at 650 nm for the reaction control with DMSO (E) and A650 nm EB is the mean absorbance at 650 nm for the blank control with DMSO (EB). The errors were expressed as 2 standard deviations (SD), SD estimated as σ^n−1.

[2] = tested on: L. infantum amastigotes (intracellular, in J774.A1 macrophages); experiment: Viability assay for L. infantum amastigotes; assay type: cell-based; conditions: Leishmania infantum, J774.A1, 24 h, read-out: L. infantum amastigote viability [% at 20 μM]
Experimental: Viability assay for L. infantum amastigotes. L. infantum promastigotes from the reference strain MHOM/MA/67/ITMAP263, stably transfected with a vector encoding a red-shifted luciferase gene (RE9HLUC; Branchini et al.; Benítez et al.) were grown in fresh complete RPMI medium (RPMI basic medium containing 25 mM HEPES, 10% v/v iFBS, 100 U/mL penicillin, 100 μg/mL streptomycin and 15 μg/mL hygromycin B) at 28°C in sealed culture flasks. Metacyclic promastigotes were obtained by a negative selection procedure using peanut agglutinin and used to infect murine macrophages (cell line J774.A1) at a 1:10 ratio for macrophages (5×10^6 cells): parasites (5×10^7 cells). 200 μL of this suspension was added per well to a 96-well culture microplate, which was then incubated at 37°C for 24 h in a 5% CO2/95% air atmosphere incubator. […] The culture microplate was incubated in the CO2 incubator for additional 24 h. Next, the supernatant was removed and the microplate wells were washed with pre-warmed PBS (200 μL). […] All conditions were tested in triplicates and the percentage amastigote viability was calculated as described for infective T. b. brucei, with errors expressed as one SD, estimated as σ^n-1.
A macrophage cell density correction factor based on the incorporation of propidium iodide was calculated and applied to normalise amastigote viability related to host cell density in the well. For a detailed explanation of the protocol, see Benítez et al..

[3] = Kinetic aqueous solubility by nephelometry; assay type: physicochemical; conditions: phosphate-buffered saline, aqueous buffer, kinetic from dmso stock, PBS pH 7.4, 1% DMSO, 25°C, logS = decadic logarithm of molar solubility [M]
Experimental: Phosphate-buffered saline pH 7.4 was prepared according to the European Pharmacopeia 10.4 by dissolving 2.38 g sodium monohydrogen phosphate dodecahydrate, 0.19 g potassium dihydrogen phosphate and 8.0 g sodium chloride in demineralised water (to a total volume of 1000 mL). The pH was adjusted to a value of 7.4 with hydrochloric acid. The buffer was filtered through a 0.45 μm membrane filter (Chromafil® Xtra PES-45/25) before use.
The kinetic aqueous solubility was determined by nephelometry. The measurements were performed on the NEPHELOstar Plus, with accompanying software Omega 5.11 and MARS 3.20 (BMG LABTECH, Ortenberg, Germany). Generally, 2 dilution series of 1–2 weighed portions of each substance were measured. First, stock solutions of the compounds were prepared in DMSO. A series of dilutions in DMSO were prepared from one stock solution to obtain at least 3 concentrations below and 3 concentrations above the precipitation point in the measured series. The specific concentrations were usually measured as duplicates.
The 96-well plate (Corning UV transparent flat-bottom 96-well plate, Corning Incorporated, Kennenbunk, ME, USA) was inspected for contamination and scratches and measured without samples prior to the solubility measurement of the compounds. 198 μL of phosphate-buffered saline pH 7.4 was placed in a 96 well plate for each well to be measured. 2 μL of a DMSO solution was added and immediately mixed by moving the pipette plunger. This solution either contained no substance—and served as a blank for the measurement (3 wells)—or the respective DMSO dilution of the substance (2–4 wells). The concentration of the solvent DMSO in each measured solution was 1%. The concentration of the compound corresponds to a 1:100 dilution compared to the respective DMSO dilution. The well plate bottom was cleaned with a lint-free cloth and compressed air and inspected for impurities before measurement. After shaking at 500 rpm for 10 s (double orbital), the measurement was carried out in the nephelometer with the laser intensity set to 80% and beam focus of 2.5 mm at a temperature of 25°C.
The obtained measuring points, relative nephelometric units (RNU) per compound concentration, were used to model two straight lines: one straight line with constant low readings and slope → 0 characterises the concentration range where no precipitation has taken place yet; The other straight line has a steep slope and increase of the RNU per concentration and characterises the concentrations at which precipitation takes place in the respective sample vessels.
The evaluation was carried out by calculating the two straight lines and their point of intersection. Outliers and values in a saturation range for the kick-off curve (usually >800 kRNU) were not used to create the straight lines and are listed separately in the evaluation file. […] The x-value of the intersection of the two straight lines represents the kinetic solubility. The results of two dilution series are additionally indicated as range (in brackets). For measurements of 3 or more series, a mean value with standard deviation is provided. The logS value describes the decadic logarithm of the molar solubility: logS (molar solubility [M]).

[4] = tested on: trypanothione synthetase of T. b. brucei (TbTryS); experiment: TryS activity screening assay on recombinant TbTryS; assay type: biochemical; conditions: % activity at 30 μM compound, errors 2 SD
Experimental: as §1, §2, §3

[5] = tested on: bloodstream form of T. b. brucei strain 427; experiment: Viability assay for T. b. brucei (whole parasite, bioluminescence); assay type: cell-based; conditions: 24 h; for T. b. brucei (BS) proliferation [% at 10 μM]: 10 μM compound
Experimental: Viability assay for T. b. brucei. The bloodstream form of the monomorphic T. b. brucei strain 427, cell line 5141313, constitutively and stably expressing an ectopic copy of the Photinus pyralis red-shifted luciferase, was cultured in vitro with HMI-9 medium, supplemented with 10% fetal bovine serum, 10 U/mL penicillin (Gibco), 10 μg/mL streptomycin (Gibco), 0.2 μg/mL bleomycin (Jena Bioscience), 4 μg/mL G418 disulfate salt (Sigma-Aldrich) and 0.2 μg/mL puromycin (Invitrogen), inside a humidified incubator (Thermo Fisher Scientific) with controlled temperature (37°C) and CO2 (5%) in a 25 or 75 cm^2 vented-cap culture-flask. The anti-trypanosomal activity of compounds was evaluated in a 96-well culture plate containing 2.2 μL/well DMSO (negative control) or compounds dissolved in DMSO (1% final concentration), and 220 μL/well of a suspension of 1 × 10^5 parasites/mL. The plates were incubated at 37°C and 5% CO2 for 24 h. Next, each well was transferred to a 96-well black plate, and 20 μL of a solution containing d-luciferin (1.5 mg/mL in PBS glucose 1% w/v) and Triton X-100 (0.05% v/v) was added. Bioluminescence signal was measured in a LUMIstar OPTIMA Microplate luminometer using the following settings: 10 s shaking, 5 s/well acquisition, 0.2 s measurement delay, maximum gain, and 37°C. For the bioluminescence assay, parasite viability was calculated according to the following formula: parasiteviability%=BLcpd-BLblank/BLneg-BLblank*100%
BL refers to the mean of bioluminescence signal corresponding to the tested compound (cpd), the blank (blank, complete media containing 1% v/v DMSO), or the negative control (neg, parasites treated with 1% v/v DMSO). EC50 values were determined from concentration-response curves fitted to a four-parameter sigmoid equation using the GraphPad Prism software (version 6.0). All errors are expressed as one SD, estimated as σ^n-1. For a detailed explanation of the protocol, see Dibello et al..

trypanothione synthetase of L. infantum (LiTryS), sequence (A4I2Z3 entry or part of it): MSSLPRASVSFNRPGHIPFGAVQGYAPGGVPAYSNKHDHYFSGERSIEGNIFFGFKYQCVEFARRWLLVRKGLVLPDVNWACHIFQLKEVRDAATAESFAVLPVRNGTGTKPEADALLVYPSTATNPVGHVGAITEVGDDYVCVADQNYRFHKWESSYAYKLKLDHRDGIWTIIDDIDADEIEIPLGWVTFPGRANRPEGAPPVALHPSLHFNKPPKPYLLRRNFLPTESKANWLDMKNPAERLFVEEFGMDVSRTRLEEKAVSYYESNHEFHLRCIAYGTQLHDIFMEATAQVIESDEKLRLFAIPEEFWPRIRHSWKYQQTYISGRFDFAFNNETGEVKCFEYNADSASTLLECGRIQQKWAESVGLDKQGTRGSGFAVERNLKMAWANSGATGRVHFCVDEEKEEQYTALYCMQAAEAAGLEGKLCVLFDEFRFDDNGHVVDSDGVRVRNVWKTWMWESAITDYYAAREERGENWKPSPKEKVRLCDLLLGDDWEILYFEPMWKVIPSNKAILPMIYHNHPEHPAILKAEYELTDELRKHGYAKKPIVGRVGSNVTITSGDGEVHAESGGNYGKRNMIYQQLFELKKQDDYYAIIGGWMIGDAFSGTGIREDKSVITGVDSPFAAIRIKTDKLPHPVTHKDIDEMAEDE

## CON=C1CCC(=O)N(CC(=O)NCCN2CCNCC2)c2ccccc21 (mixture of isomers) [5d, (E/Z)-2-[5-(Methoxyimino)-2-oxo-2,3,4,5-tetrahydro-1H-benzo[b]azepin-1-yl]-N-[2-(piperazin-1-yl)ethyl]acetamide dihydrochloride]
[1]
  activity at 30 µM: 97.5 ± 4.7%
[2]
  viability at 20 µM: 74.9 ± 11.2%
[3]
  solubility kinetic at 10 s: > 0.001 M

## Cl.O=C(CN1C(=O)CCCc2ccccc21)N1CCNCC1 [2q, 1-[2-Oxo-2-(piperazin-1-yl)ethyl]-1,3,4,5-tetrahydro-2H-benzo[b]azepin-2-one hydrochloride]
[1]
  activity at 30 µM: 113 ± 10.7%
[3]
  solubility kinetic at 10 s: > 0.00398 M

## O=C(O)CN1C(=O)Cc2c([nH]c3ccc(I)cc23)-c2ccc(Cl)cc21 [9a, 2-(3-Chloro-9-iodo-6-oxo-7,12-dihydrobenzo[2,3]azepino[4,5-b]indol-5(6H)-yl)acetic acid]
[1]
  activity at 30 µM: 67.2 ± 3.9%
  LiTryS activity [% at 30 μM]: moderate inhibitory activity
[4]
  TbTryS activity [% at 30 μM]: 102.9 ± 6.7%
[5]
  T. b. brucei (BS) proliferation [% at 10 μM]: 24.2 ± 3.4%
[5]; Trypanosoma brucei, read-out: T. b. brucei (BS) [EC50
  EC50: 10.5 ± 1.3 µM

## O=C(O)CN1C(=O)Cc2c([nH]c3ccc(Cl)cc23)-c2ccc(Cl)cc21 [9b, 2-(3,9-Dichloro-6-oxo-7,12-dihydrobenzo[2,3]azepino[4,5-b]indol-5(6H)-yl)acetic acid]
[1]
  activity at 30 µM: 90.2 ± 6.7%
[4]
  TbTryS activity [% at 30 μM]: 104.0 ± 10.1%
[5]
  T. b. brucei (BS) proliferation [% at 10 μM]: 56.4 ± 3.8%

## O=C(O)CN1C(=O)Cc2c([nH]c3ccc(C(F)(F)F)cc23)-c2ccc(Cl)cc21 [9c, 2-(3-Chloro-6-oxo-9-trifluoromethyl-7,12-dihydrobenzo[2,3]azepino[4,5-b]indol-5(6H)-yl)acetic acid]
[1]
  activity at 30 µM: 62.4 ± 6.4%
  LiTryS activity [% at 30 μM]: moderate inhibitory activity
[4]
  TbTryS activity [% at 30 μM]: 110.2 ± 11.5%
[5]
  T. b. brucei (BS) proliferation [% at 10 μM]: 61.6 ± 10.2%
